In patent US20100119516A1, “ANTI-TGF-BETA RECEPTOR II ANTIBODIES” (priority 2008, published 2010):

Tested on: EMT6 mouse tumor cells
Assay: EMT6 s.c. tumor model (monotherapy and combination with cyclophosphamide)
Assay type: in vivo, mice
Conditions: i.p. 3 times each week, mAb 40 mg/kg, CTX 80 mg/kg
Source text: Athymic nude mice (Charles River Laboratories, Wilmington, Mass.), Balb/c mice, or C57B6 mice (Charles River Laboratories, Wilmington, Mass.) may be used for inoculation with mouse or human carcinoma cells. For treatment of established tumors in subcutaneous models, tumors may be allowed to grow to approximately 200 mm^3 in size, and then mice may be randomized into groups of 12-15 animals per group. In lung metastasis models, mice may be injected intravenously with tumor cells via tail vein. Animals may receive i.p. administered anti-TGFβRII mAb at a dose of 10-40 mg/kg three times each week. Mice in control groups may receive an equal volume of saline or normal IgG solution. […] Tumors may be measured twice each week with calipers. Tumor volumes may be calculated using the formula [π/6 (w1×w2×2)], where “w1” represents the largest tumor diameter and “w2” represents the smallest tumor diameter. […]
The inhibitory activity of mAb MT1 against immunosuppressive cells, i.e. CD4/CD25/Foxp3/TGFβRII+Treg cells and Gr-1+/CD11b+/TGFβRII+ myeloid cells is evaluated in an EMT6 s.c. tumor model. The inhibitory effect of anti-TGFβRII antibody on Treg and Gr-1+/CD11b+ myeloid cell population in tumor-bearing mice may be determined by FACS analysis on the alteration of Gr-1+/CD11b+ population and CD4/CD25/Foxp3/TGFβRII+ and Gr-1+/CD11b+/TGFβRII+ population after treatment of mice with mAb MT1. […]

## O=P1(N(CCCl)CCCl)NCCCO1 (centres unmarked) [CTX, Cyclophosphamide]
  inhibition of primary tumor growth: 62%
  inhibition of spontaneous pulmonary metastasis: 96%
